# Assay results reported in patent US12187728B2 (Raze Therapeutics, Inc., priority 2015, dated 2025).
# Target: T1, Human MTHFD2 (Homo sapiens, UniProt P13995)
# T1 construct: residues 36-350 in Uniport ID P13995; His6 (N); made in house; host or cells: E. coli
# T1 sequence (P13995 36-350): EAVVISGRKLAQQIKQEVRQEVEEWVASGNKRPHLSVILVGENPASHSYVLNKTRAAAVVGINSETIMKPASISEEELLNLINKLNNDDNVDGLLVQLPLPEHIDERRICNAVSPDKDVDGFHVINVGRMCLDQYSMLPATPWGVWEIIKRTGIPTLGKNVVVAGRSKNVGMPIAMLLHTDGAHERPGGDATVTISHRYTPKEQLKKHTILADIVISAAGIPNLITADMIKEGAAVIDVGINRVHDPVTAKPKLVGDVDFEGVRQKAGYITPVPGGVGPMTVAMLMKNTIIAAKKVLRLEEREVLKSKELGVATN
# Assay: MTHFD2 Activity Assay (dehydrogenase activity, diaphorase/resazurin coupled fluorescence)
# Assay type: biochemical
# Conditions: inhibitory activity (IC50 and/or binding constant); 0.2 nM MTHFD2, 11 concentrations
# Summary of the method: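 Resorufin fluorescence (ex 525, em 598 nm) reports NADH formed by the dehydrogenase via diaphorase coupling. Enzyme (0.2 nM, residues 36-350, N-His6) sat with compound 15 min before 70 μM CH2-THF and 1 mM NAD+ started a 30 min reaction. IC50s come from 4-parameter fits over 11 concentrations.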
row,SMILES,IC50 [nM]
1,"Cn1c(C(N)c2cccnc2)nc2c1c(=O)n(Cc1cc3c(Cl)cccc3[nH]1)c(=O)n2C (stereo not shown) [Example 445, 8-[amino(3-pyridyl)methyl]-1-[(4-chloro-1H-indol-2-yl)methyl]-3,7-dimethyl-purine-2,6-dione]",10 to 1000
2,"Cn1c(C(N)C2CCCCC2)nc2c1c(=O)n(Cc1cc3c(Cl)cccc3[nH]1)c(=O)n2C (stereo not shown) [Example 446, 8-[amino(cyclohexyl)methyl]-1-[(4-chloro-1H-indol-2-yl)methyl]-3,7-dimethyl-purine-2,6-dione]",10 to 1000
3,"Cn1c([C@H](N)Cc2ccncc2)nc2c1c(=O)n(Cc1cc3c(Cl)cccc3[nH]1)c(=O)n2C [Example 447, (R)-8-(1-amino-2-(pyridin-4-yl)ethyl)-1-((4-chloro-1H-indol-2-yl)methyl)-3,7-dimethyl-1H-purine-2,6(3H,7H)-dione]",10 to 1000
4,"Cc1cccc2cc(Cn3c(=O)c4c(nc(C(C)N)n4C)n(C)c3=O)ccc12 (stereo not shown) [Example 448, 8-(1-aminoethyl)-3,7-dimethyl-1-((5-methylnaphthalen-2-yl)methyl)-1H-purine-2,6(3H,7H)-dione]",10 to 1000
5,"Cn1c([C@@H](N)Cc2ccncc2)nc2c1c(=O)n(Cc1cc3c(Cl)cccc3[nH]1)c(=O)n2C [Example 449, (S)-8-(1-amino-2-(pyridin-4-yl)ethyl)-1-((4-chloro-1H-indol-2-yl)methyl)-3,7-dimethyl-1H-purine-2,6(3H,7H)-dione]",10 to 1000
6,"Cn1c(C(N)Cc2ccccc2)nc2c1c(=O)n(Cc1cc3c(Cl)cccc3[nH]1)c(=O)n2C (stereo not shown) [Example 450, 8-(1-amino-2-phenylethyl)-1-((4-chloro-1H-indol-2-yl)methyl)-3,7-dimethyl-1H-purine-2,6(3H,7H)-dione]",10 to 1000
7,"CC(=O)NCc1nccc(Nc2nc3c(c(=O)n(Cc4cc5c(Cl)cccc5[nH]4)c(=O)n3C)n2C)n1 [Example 451, N-((4-(1-((4-chloro-1H-indol-2-yl)methyl)-3,7-dimethyl-2,6-dioxo-2,3,6,7-tetrahydro-1H-purin-8-ylamino)pyrimidin-2-yl)methyl)acetamide]",10 to 1000
8,"CC(N)c1nc2c(c(=O)n(Cc3ccc4c(C5CC5)cccc4c3)c(=O)n2C)n1C (stereo not shown) [Example 452, 8-(1-aminoethyl)-1-((5-cyclopropylnaphthalen-2-yl)methyl)-3,7-dimethyl-1H-purine-2,6(3H,7H)-dione]",10 to 1000
9,"Cn1c(C2CNCCO2)nc2c1c(=O)n(Cc1cc3c(Cl)cccc3[nH]1)c(=O)n2C (stereo not shown) [Example 453, 1-[(4-chloro-1H-indol-2-yl)methyl]-3,7-dimethyl-8-morpholin-2-yl-purine-2,6-dione]",10 to 1000
10,"Cn1c(C(N)C2CCOCC2)nc2c1c(=O)n(Cc1cc3c(Cl)cccc3[nH]1)c(=O)n2C (stereo not shown) [Example 454, 8-[amino(tetrahydropyran-4-yl)methyl]-1-[(4-chloro-1H-indol-2-yl)methyl]-3,7-dimethyl-purine-2,6-dione]",10 to 1000
11,"Cn1c(C(N)C2CCOCC2)nc2c1c(=O)n(Cc1[nH]c3cccc(Cl)c3c1Cl)c(=O)n2C (stereo not shown) [Example 455, 8-[amino(tetrahydropyran-4-yl)methyl]-1-[(3,4-dichloro-1H-indol-2-yl)methyl]-3,7-dimethyl-purine-2,6-dione]",10 to 1000
12,"CC(N)c1nc2c(c(=O)n(Cc3[nH]c4cccc(Cl)c4c3Cl)c(=O)n2C)n1C (stereo not shown) [Example 456, 8-(1-aminoethyl)-1-[(3,4-dichloro-1H-indol-2-yl)methyl]-3,7-dimethyl-purine-2,6-dione]",10 to 1000
13,"CC(c1nc2c(c(=O)n(Cc3cc4c(Cl)cccc4[nH]3)c(=O)n2C)n1C)N(C)C (stereo not shown) [Example 457, 1-[(4-chloro-1H-indol-2-yl)methyl]-8-[1-(dimethylamino)ethyl]-3,7-dimethyl-purine-2,6-dione]",10 to 1000

# The next lines start with the values.
row,IC50 [nM],SMILES
1,10 to 1000,"Cn1c(C(N)CO)nc2c1c(=O)n(Cc1cc3c(Cl)cccc3[nH]1)c(=O)n2C (stereo not shown) [Example 458, 8-(1-amino-2-hydroxy-ethyl)-1-[(4-chloro-1H-indol-2-yl)methyl]-3,7-dimethyl-purine-2,6-dione]"
2,10 to 1000,"CCn1c(=O)n(Cc2ccc3c(C)cccc3c2)c(=O)c2c1nc(C(C)N)n2C (stereo not shown) [Example 459, 8-(1-aminoethyl)-3-ethyl-7-methyl-1-((5-methylnaphthalen-2-yl)methyl)-1H-purine-2,6(3H,7H)-dione]"
3,10 to 1000,"Cn1c(Nc2ccncc2)nc2c1c(=O)n(Cc1cc3cnccc3[nH]1)c(=O)n2C [Example 460, 1-((1H-pyrrolo[3,2-c]pyridin-2-yl)methyl)-3,7-dimethyl-8-(pyridin-4-ylamino)-1H-purine-2,6(3H,7H)-dione]"
4,10 to 1000,"Cn1c(C(N)c2ccncc2)nc2c1c(=O)n(Cc1cc3c(Cl)cccc3[nH]1)c(=O)n2C (stereo not shown) [Example 461, 8-(amino(pyridin-4-yl)methyl)-1-((4-chloro-1H-indol-2-yl)methyl)-3,7-dimethyl-1H-purine-2,6(3H,7H)-dione]"
5,10 to 1000,"Cn1c(Nc2ccnc(CNC(N)=O)n2)nc2c1c(=O)n(Cc1cc3c(Cl)cccc3[nH]1)c(=O)n2C [Example 462, 1-((4-(1-((4-chloro-1H-indol-2-yl)methyl)-3,7-dimethyl-2,6-dioxo-2,3,6,7-tetrahydro-1H-purin-8-ylamino)pyrimidin-2-yl)methyl)urea]"
6,10 to 1000,"CCc1cccc2cc(Cn3c(=O)c4c(nc(C(C)N)n4C)n(C)c3=O)ccc12 (stereo not shown) [Example 463, 8-(1-aminoethyl)-1-((5-ethylnaphthalen-2-yl)methyl)-3,7-dimethyl-1H-purine-2,6(3H,7H)-dione]"
7,10 to 1000,"Cn1c(C(N)C2CCCC2)nc2c1c(=O)n(Cc1cc3c(Cl)cccc3[nH]1)c(=O)n2C (stereo not shown) [Example 464, 8-(amino(cyclopentyl)methyl)-1-((4-chloro-1H-indol-2-yl)methyl)-3,7-dimethyl-3,7-dihydro-1H-purine-2,6-dione]"
8,10 to 1000,"Cn1c(C(N)C(CO)CO)nc2c1c(=O)n(Cc1cc3c(Cl)cccc3[nH]1)c(=O)n2C (stereo not shown) [Example 465, 8-[1-amino-3-hydroxy-2-(hydroxymethyl)propyl]-1-[(4-chloro-1H-indol-2-yl)methyl]-3,7-dimethyl-purine-2,6-dione]"
9,10 to 1000,"Cn1c(Nc2ccncc2)nc2c1c(=O)n(Cc1cc3c(Cl)cccc3[nH]1)c(=O)n2C1CC1 [Example 466, 1-[(4-chloro-1H-indol-2-yl)methyl]-3-cyclopropyl-7-methyl-8-(4-pyridylamino)purine-2,6-dione]"
10,5000 to 10000,"Cn1c(C(N)C2COC2)nc2c1c(=O)n(Cc1cc3c(Cl)cccc3[nH]1)c(=O)n2C (stereo not shown) [Example 467, 8-[amino(oxetan-3-yl)methyl]-1-[(4-chloro-1H-indol-2-yl)methyl]-3,7-dimethyl-purine-2,6-dione]"
11,10 to 1000,"Cn1c(/C(=N/O)c2ccncc2)nc2c1c(=O)n(Cc1cc3c(Cl)cccc3[nH]1)c(=O)n2C [Example 468, (E)-1-((4-chloro-1H-indol-2-yl)methyl)-8-((hydroxyimino)(pyridin-4-yl)methyl)-3,7-dimethyl-1H-purine-2,6(3H,7H)-dione or (Z)-1-((4-chloro-1H-indol-2-yl)methyl)-8-((hydroxyimino)(pyridin-4-yl)methyl)-3,7-dimethyl-1H-purine-2,6(3H,7H)-dione]"
12,10 to 1000,"Cn1c(Nc2ccnc(CN)n2)nc2c1c(=O)n(Cc1cc3c(Cl)cccc3[nH]1)c(=O)n2C [Example 469, 8-(2-(aminomethyl)pyrimidin-4-ylamino)-1-((4-chloro-1H-indol-2-yl)methyl)-3,7-dimethyl-1H-purine-2,6(3H,7H)-dione]"
13,10 to 1000,"Cn1c([C@H](N)Cc2cccnc2)nc2c1c(=O)n(Cc1cc3c(Cl)cccc3[nH]1)c(=O)n2C [Example 470, (R)-8-(1-amino-2-(pyridin-3-yl)ethyl)-1-((4-chloro-1H-indol-2-yl)methyl)-3,7-dimethyl-1H-purine-2,6(3H,7H)-dione]"
14,10 to 1000,"Cn1c([C@H](N)Cc2ccccn2)nc2c1c(=O)n(Cc1cc3c(Cl)cccc3[nH]1)c(=O)n2C [Example 472, (R)-8-(1-amino-2-(pyridin-2-yl)ethyl)-1-((4-chloro-1H-indol-2-yl)methyl)-3,7-dimethyl-1H-purine-2,6(3H,7H)-dione]"
15,10 to 1000,"Cn1c(C(N)c2ccccn2)nc2c1c(=O)n(Cc1cc3c(Cl)cccc3[nH]1)c(=O)n2C (stereo not shown) [Example 473, 8-(amino(pyridin-2-yl)methyl)-1-((4-chloro-1H-indol-2-yl)methyl)-3,7-dimethyl-1H-purine-2,6(3H,7H)-dione]"
16,10 to 1000,"Cn1c(Nc2ccncc2)nc2c1c(=O)n(Cc1cc3c(Cl)ccc(F)c3[nH]1)c(=O)n2C [Example 474, 1-((4-chloro-7-fluoro-1H-indol-2-yl)methyl)-3,7-dimethyl-8-(pyridin-4-ylamino)-1H-purine-2,6(3H,7H)-dione]"
17,10 to 1000,"Cc1cc(Nc2nc3c(c(=O)n(Cc4cc5c(Cl)cccc5[nH]4)c(=O)n3C)n2C)nc(CCC(N)=O)n1 [Example 475, 3-(4-(1-((4-chloro-1H-indol-2-yl)methyl)-3,7-dimethyl-2,6-dioxo-2,3,6,7-tetrahydro-1H-purin-8-ylamino)-6-methylpyrimidin-2-yl)propanamide]"
18,10 to 1000,"Cn1c(=O)n(Cc2cc3c(Cl)cccc3[nH]2)c(=O)c2c1nc1n2CCNC1 [Example 476, 3-((4-chloro-1H-indol-2-yl)methyl)-1-methyl-6,7,8,9-tetrahydropyrazino[1,2-f]purine-2,4(1H,3H)-dione]"
